According to patent US8501806B2, “Methods for preventing or reducing colon carcinogenesis” (Nogra Pharma Limited, priority 2008, dated 2013):

What was measured:
fibroblasts = experiment: Proliferation of normal fibroblasts; type: cell-based; conditions: FIG. 4B; 48 hours
HT-29 cells = experiment: CFSE cell proliferation assay, HT-29 cells; type: cell-based, human; conditions: FIG. 2; graded doses
Description: (§1) All reagents used in Examples 1-3 were from Sigma-Aldrich (Milan, Italy) unless specified. Compounds were dissolved as a 25 mM stock solution in culture medium, and the pH of the solution was adjusted to 7.4, if necessary, with NaOH. The human CRC cell lines, HCT-116 and HT-29 (expressing either wild-type or mutated p53 respectively), were maintained in McCoy's 5A supplemented with 10% fetal bovine serum (FBS), 1% penicillin/streptomycin, and 50 μg/ml gentamycin. The murine CRC cell line, CT26, was maintained in RPMI 1640 medium supplemented with 10% FBS and 1% penicillin/streptomycin.
For cell growth assays, serum-starved HCT-116, HT-29, and CT26 cells were plated in appropriate complete medium at 2×10^5 cells/ml/well in 6-well culture dishes and allowed to adhere overnight. Cells were then labeled with carboxyfluorescein diacetate succinimidyl ester (CFSE) (Invitrogen, Milan Italy) at 37° C. according to the manufacturer's instruction. After 30 minutes, the medium was removed and fresh media containing 0.05% bovine serum albumin (BSA), and increasing doses of 5-ASA or disclosed compounds were added. […] CFSE and/or PI-positive cells were determined by flow cytometry (Becton Dickinson, FACSCalibur, Milan, Italy). […] The percentage of proliferating cells was then evaluated by flow cytometry.

HCT-116 cells = experiment: CFSE cell proliferation assay, HCT-116 cells; type: cell-based, human
Description: as §1
For cell growth assays, serum-starved HCT-116, HT-29, and CT26 cells were plated in appropriate complete medium at 2×10^5 cells/ml/well in 6-well culture dishes and allowed to adhere overnight. Cells were then labeled with carboxyfluorescein diacetate succinimidyl ester (CFSE) (Invitrogen, Milan Italy) at 37° C. according to the manufacturer's instruction. After 30 minutes, the medium was removed and fresh media containing 0.05% bovine serum albumin (BSA), and increasing doses of 5-ASA or disclosed compounds were added. After 24 hours, cells were collected, washed twice with PBS 1×, and then incubated with 5 μg/ml of PI for 15 minutes, at 4° C. in the dark. CFSE and/or PI-positive cells were determined by flow cytometry (Becton Dickinson, FACSCalibur, Milan, Italy). To determine whether the negative effect of compound 14 (2-methoxy-5-amino-N-hydroxybenzamide) on proliferation was reversible, cells were cultured in the presence or absence of compound 14 (1.5 and 3 mM) for 24 hours (1st culture). Afterwards, cells were either left untreated or extensively washed and cultured with medium in the absence of compound 14 for additional 24 hours (2nd culture). The percentage of proliferating cells was then evaluated by flow cytometry.

[1] = test system: established CT26-derived tumors; experiment: Growth of established CT26 xenografts; type: in vivo, Balb/c mice; conditions: FIG. 7D; subcutaneously 8 mg/kg mouse/day for 2 weeks from day 14
Description: CT26 cells (1×10^5 cells in 300 μl PBS 1×) were injected subcutaneously into the flank of Balb/c mice, whose fur was shaved and depilated. Five groups of 10 mice each were implanted with CT26. The first group received daily subcutaneously 300 μl PBS (control), the remaining groups received daily subcutaneously compound 14 at a final dose of 1, 4, 8, or 12 mg/kg/mouse dissolved in 300 μl PBS. Both compound 14 and PBS were administered starting on day 3. Further experimentation was performed to assess whether compound 14 had anti-cancer activity when administered systemically. […] Mice were monitored over the time for weight loss. After 2 weeks, mice were sacrificed, tumors were photographed, then excised and their mass calculated according to the following formula: ½×(short diameter)×(long diameter)×(height). Total extracts were prepared from xenografts and analyzed for cyclin D1 protein content by Western blotting using a commercially available antibody (Santa Cruz Biotechnology). […] After 2 weeks, mice with similar tumor size, determined by caliper measurements, were divided into three groups of 8 mice each. […] Mice were monitored over the time for weight loss. After 2 weeks, mice were sacrificed, tumors were photographed, then excised and their mass calculated as described above. […] Mice were monitored over the time and sacrificed at day 28.

4T1-derived metastasis = experiment: 4T1 spontaneous metastasis, clonogenic metastasis assay; type: in vivo, Balb/c mice; conditions: FIG. 11; daily i.p. 8 mg/kg/mouse, sacrificed at day 35
Description: Spontaneous metastases were measured by adapting methods described previously by Pulaski and Ostrand-Rosenberg (Cancer Research 58, 1486-1493, 1998). 4T1 tumor cells (1×10^5 cells in 100 μl 1×PBS) were injected s.c. in the abdominal mammary gland of 8-10 weeks old female Balb/c mice. Three days after 4T1 injection, mice received daily i.p. administration of compound 14 (8 mg/kg/mouse) or PBS (control). Mice were monitored over the time for weight loss and sacrificed at day 35. Lungs and liver were removed from each mouse, and treated as follows: liver samples were finely minced and digested with an enzyme solution containing 1×PBS, 0.01% BSA, 1 mg/ml hyaluronidase, and 1 mg/ml collagenase type I for 20 min at 37° C. on a platform rocker; lung samples were finely minced and digested with an enzyme cocktail containing 1×PBS, 1 mg/ml collagenase type IV and 10 units/ml elastase for 1 h at […] on a rotating wheel. At the end, samples were filtered through 70 μm nylon cell strainers and washed three times with 1×PBS. The resulting cell preparations were resuspended and plated neat or serially diluted in 10-cm tissue culture dishes in 20 ml of medium containing 60 μM 6-thioguanine. Suspensions were incubated in 10% CO2-air atmosphere at 37° C. for clonogenic growth. […] Total colony-forming cells were calculated on a per-organ basis. […]

CDK2 = CDK2 phosphorylation by Western blotting; type: cell-based, human; conditions: FIG. 6, HCT-116 cells
From the text: One of 4 representative Western blots is shown.

SMILES: COc1ccc(N)cc1C(=O)NO [compound 14, 2-methoxy-5-amino-N-hydroxybenzamide]
- proliferation of normal fibroblasts (fibroblasts): did not affect
- proliferation of HT-29 cells (HT-29 cells): dose-dependently inhibited
- anti-proliferative effect (percentage of growth inhibition) (HCT-116 cells; FIG. 1, CFSE-labeled HCT 116 cells, increasing doses): pronounced anti-proliferative effect
- potency relative to 5-ASA in inhibiting CRC cell proliferation (HCT-116 cells; FIG. 1, CFSE-labeled HCT 116 cells, increasing doses, 24 hours): about ten times more potent than 5-ASA
- proliferation of HCT-116 cells (HCT-116 cells; FIG. 2, graded doses): dose-dependently inhibited
- time dependence of anti-proliferative effect (HCT-116 cells; FIG. 3A, increasing doses for 24, 48, and 72 hours): time-dependent
- reversibility of anti-proliferative effect (HCT-116 cells; FIG. 3B, 1.5-3 mM for 24 hours, then washed and cultured 24 hours without compound): fully reversible
- tumor size of established CT26-derived tumors vs PBS [1]: significantly reduced
- number of liver metastatic tumor cells (4T1-derived metastasis): reduction
- number of lung metastatic tumor cells (4T1-derived metastasis): reduction
- CDK2 phosphorylation on threonin 14 and tyrosine 15 (CDK2): enhanced phosphorylation
